Some test systems named below: HS 578T breast; BT-549 breast; LOX IMVI melanoma; MCF7 breast; MDA-N; DU-145 prostate; T-47D breast; MOLT-4 leukemia; OVCAR-3 ovarian; HCT-15 colon; SNB-78 CNS; NCI-H226 lung; DLD-1 colon; DMS 273 small cell lung; XF 498 CNS; KM20L2 colon; UO-31 renal; DMS 114 small cell lung; M19-MEL melanoma; LXFL 529 NSCLC.
Common to all, as to test: NCI anticancer screen, dose series, 48 h

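These data come from cells grown in 96-well plates and exposed to compound for 48 hours at five concentrations. The concentration for full growth arrest is given as TGI.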 Bounds are passed on as bounds.

For two compounds, TGI results are on record in PubChem BioAssay (NCI).

Consider `COc1cc2cc(C(=O)N3CC(CCl)c4c3cc([N+](C)(C)Cc3ccc([N+](=O)[O-])n3C)c3ccccc43)[nH]c2c(OC)c1OC` (configuration not stated), for which the TGI in the assay on HS 578T breast amounted to 38.2 µM; with BT-549 breast it was 11.5 µM; in the assay with LOX IMVI melanoma, 12.3 µM; in the assay on MCF7 breast, 12.5 µM; with MDA-N it was 6.64 µM; in the assay with DU-145 prostate, 23.8 µM. Also, the values for the TGI with T-47D breast, with MOLT-4 leukemia and with OVCAR-3 ovarian were 38.9 µM, 16 µM and over 100 µM, respectively.

With `Cc1cc2n([O-])cccc-2[n+](=O)c1`, the TGI in the assay on HCT-15 colon, in the assay with SNB-78 CNS, in the assay on NCI-H226 lung, with DLD-1 colon, in the assay on DMS 273 small cell lung and in the assay with XF 498 CNS was over 100 µM throughout. For the same compound, the TGI in the assay with KM20L2 colon, with UO-31 renal, in the assay with DMS 114 small cell lung, with MOLT-4 leukemia, with OVCAR-3 ovarian and in the assay on M19-MEL melanoma was over 100 µM in each case. Moreover, the TGI in the assay with LXFL 529 NSCLC was over 100 µM.
